Assay results from patent US20150094217A1, “TEST FOR DIAGNOSING RESISTANCE TO AZACITIDINE” (UNIVERSITÉ NICE SOPHIA ANTIPOLIS, priority 2012, published 2015).

Legend:
SKM1-S cells = assay: Cell metabolism by XTT test after azacitidine stimulation; type: cell-based; settings: 1 μM azacitidine, 24 h
Procedure: The SKM1-S and SKM1-R cells are transfected with an interfering RNA:Luc siRNA, BCL2L10 siRNA or Bcl-2 siRNA. After 72 h of transfection, the cells are stimulated with 1 μM of azacitidine.
In FIG. 7, the cell metabolism is measured 24 hours after stimulation by means of the XTT test ([…]). The results shown correspond to the average standard error of the mean (±SEM) of three independent experiments performed four times.
To determine whether the overexpression of BCL2L10 is a cause rather than a consequence of azacitidine resistance, the SKM1-S and SKM1-R cells were transfected with a control siRNA or with siRNA directed against one or the other of the BCL2L10 or Bcl-2 proteins, then treated for 24 h with or without azacitidine, before determining cell viability and apoptosis. […] In addition, apoptosis was the main mechanism by which the extinction of the expression of the BCL2L10 gene enabled azacitidine sensitization by increasing the quantity of active caspase-3.

[1] = Overall survival (Kaplan-Meier) of MDS or AML patients treated with AZA, cohort 1; type: in vivo, human
Source text: The comparison of the overall survival with transplantation according to Kaplan-Meier was examined for patients with MDS or AML treated with AZA, as well as the percentage of cells expressing BCL2L10 in their bone marrow.
An overall survival of 3 months was estimated at 95% for the sub-groups weakly expressing BCL2L10 compared with 51% for the sub-groups strongly expressing BCL2L10. For all of the patients in the sub-group strongly expressing BCL2L10, the disease progressed.

## Nc1ncn([C@@H]2O[C@H](CO)[C@@H](O)[C@H]2O)c(=O)n1 [Azacitidine]
SKM1-S cells
  cell metabolism: loss in cell metabolism
[1]; sub-groups strongly expressing BCL2L10, cohort 1
  overall survival of 3 months: 51%
[1]; sub-groups weakly expressing BCL2L10, cohort 1
  overall survival of 3 months: 95%
